# What was measured:
# HL-60 = test: Cytotoxicity against human HL60 cells after 48 hrs by MTT assay; type: functional, cell-based; details: HL-60, 48 h
# Aorta [1] = test: Vasodilatory activity in Sprague-Dawley rat thoracic aorta smooth muscle assessed as inhibition of phenylephrine-induced vasoconstriction; type: functional, tissue-based
# SW480 = test: Cytotoxicity against human SW480 cells after 48 hrs by MTT assay; type: functional, cell-based; details: SW480, 48 h
# Aorta [2] = test: Vasodilatory activity in Sprague-Dawley rat thoracic aorta smooth muscle assessed as inhibition of KCL-induced vasoconstriction; type: functional, tissue-based
smiles,measurement,setting,value
CC[C@@H]1CN2CCc3c([nH]c4ccccc34)[C@@H]2C[C@@H]1/C(=C/OC)C(=O)OC [CORYNANTHEIDINE],IC50,HL-60,14 µM
same,IC50,Aorta [1],> 30 µg/mL
same,IC50,SW480,23.3 µM
same,IC50,Aorta [2],> 30 µg/mL
CC[C@@H]1CN2CC[C@]3(C(=O)Nc4ccccc43)[C@@H]2C[C@@H]1/C(=C\OC)C(=O)OC [CORYNOXINE B],IC50,HL-60,> 40 µM
same,IC50,Aorta [1],> 30 µg/mL
same,IC50,SW480,> 40 µM
same,IC50,Aorta [2],> 30 µg/mL
CC[C@@H]1CN2CC[C@@]3(C(=O)Nc4ccccc43)[C@@H]2C[C@@H]1/C(=C\OC)C(=O)OC [CORYNOXINE],IC50,HL-60,> 40 µM
same,IC50,Aorta [1],> 30 µg/mL
same,IC50,SW480,> 40 µM
same,IC50,Aorta [2],> 30 µg/mL
CC[C@H]1CN2CCc3c([nH]c4ccccc34)[C@@H]2C[C@@H]1/C(=C/OC)C(=O)OC [DIHYDROCORYNANTHEINE],IC50,HL-60,> 40 µM
same,IC50,Aorta [1],21.8 µg/mL
same,IC50,SW480,> 40 µM
same,IC50,Aorta [2],6.73 µg/mL
CC[C@H]1CN2CC[C@@]3(C(=O)Nc4ccccc43)[C@@H]2C[C@@H]1/C(=C\OC)C(=O)OC [ISORHYNCHOPHYLLINE],IC50,HL-60,> 40 µM
same,IC50,Aorta [1],18.4 µg/mL
same,IC50,SW480,> 40 µM
same,IC50,Aorta [2],> 30 µg/mL
CC[C@@H]1[C@@H](/C(=C/OC)C(=O)OC)C[C@@H]2N(CC[C@]23C(=O)Nc2ccccc23)[C@H]1CC(C)=O [MACROPHYLLINE A],IC50,HL-60,> 40 µM
same,IC50,Aorta [1],15.9 µg/mL
same,IC50,SW480,> 40 µM
same,IC50,Aorta [2],> 30 µg/mL
CC[C@@H]1[C@@H](/C(=C/OC)C(=O)OC)C[C@@H]2N(CC[C@@]23C(=O)Nc2ccccc23)[C@H]1CC(C)=O [MACROPHYLLINE B],IC50,HL-60,> 40 µM
same,IC50,Aorta [1],> 30 µg/mL
same,IC50,SW480,> 40 µM
same,IC50,Aorta [2],> 30 µg/mL
CC[C@H]1C[N@@+]2(C)CC[C@]3(C([O-])=Nc4ccccc43)[C@H]2C[C@@H]1/C(=C/OC)C(=O)OC [MACROPHYLLIONIUM],IC50,HL-60,> 40 µM
same,IC50,Aorta [1],> 30 µg/mL
same,IC50,SW480,> 40 µM
same,IC50,Aorta [2],> 30 µg/mL
CC[C@H]1CN2CC[C@]3(C(=O)Nc4ccccc43)[C@@H]2C[C@@H]1/C(=C\OC)C(=O)OC [RHYNCHOPHYLLINE],IC50,HL-60,> 40 µM
same,IC50,Aorta [1],> 30 µg/mL
same,IC50,SW480,> 40 µM
same,IC50,Aorta [2],> 30 µg/mL
COc1ccc(CCN(C)CCCC(C#N)(c2ccc(OC)c(OC)c2)C(C)C)cc1OC (stereo not drawn) [VERAPAMIL],IC50,Aorta [1],0.32 µg/mL
same,IC50,Aorta [2],1.41 µg/mL
